The values below come from paper PMC9785169, “New Insights Regarding Hemin Inhibition of the Purified Rat Brain 2-Oxoglutarate Carrier and Relationships with Mitochondrial Dysfunction” (Journal of Clinical Medicine, 2022).

The target of the assay is T1, 2-oxoglutarate/malate carrier (OGC) (Rattus norvegicus, UniProt P97700).
T1 construct: gene Slc25a11; OGC purified from rat brain mitochondria, reconstituted into proteoliposomes
T1 sequence (P97700 2-314): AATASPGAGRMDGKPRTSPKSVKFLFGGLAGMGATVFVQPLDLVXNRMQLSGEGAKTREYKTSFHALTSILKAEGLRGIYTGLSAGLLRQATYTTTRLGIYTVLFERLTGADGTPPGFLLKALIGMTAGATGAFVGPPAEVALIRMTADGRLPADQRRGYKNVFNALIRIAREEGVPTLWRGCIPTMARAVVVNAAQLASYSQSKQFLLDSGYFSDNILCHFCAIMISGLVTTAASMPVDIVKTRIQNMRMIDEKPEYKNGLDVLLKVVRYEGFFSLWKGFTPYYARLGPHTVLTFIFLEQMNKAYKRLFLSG
Description: […]malate uptake inhibition in proteoliposomes reconstituted with purified OGC, internal hemin. The class given is biochemical.

Molecules are shown by their SMILES.

Regarding `C=CC1=C(C)C2=Cc3c(C=C)c(C)c4[n]3[Fe]([Cl])[n]3c(c(C)c(CCC(=O)O)c3=CC3=NC(=C4)C(C)=C3CCC(=O)O)=CC1=N2` [hemin], the half-inhibitory concentration (IC50) came out at 82 ± 7 nM.
